From PubChem BioAssay (NCI)
Several values for one entry are separate records, joined by “and”; a condition that tells them apart may be missing. Equal entries are not always repeated.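 1) Cells in 96-well plates. 2) Compound, 48 h, 5 concentrations. 3) Linear interpolation between surrounding doses. 4) Unreached endpoint = highest concentration. The concentration for 50% growth inhibition is given as GI50. TGI marks complete inhibition of growth.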

Key:
Experiment in all cases: DTP human tumour cell line panel, 48 h
DU-145 prostate = system: DU-145 prostate
UACC-62 melanoma = system: UACC-62 melanoma
SK-MEL-2 melanoma = system: SK-MEL-2 melanoma
SK-MEL-5 melanoma = system: SK-MEL-5 melanoma
ACHN renal = system: ACHN renal
CCRF-CEM leukemia = system: CCRF-CEM leukemia
UACC-257 melanoma = system: UACC-257 melanoma
T-47D breast = system: T-47D breast

| SMILES | GI50 (DU-145 prostate) | TGI (DU-145 prostate) | GI50 (UACC-62 melanoma) | TGI (UACC-62 melanoma) | GI50 (SK-MEL-2 melanoma) | TGI (SK-MEL-2 melanoma) | GI50 (SK-MEL-5 melanoma) | TGI (SK-MEL-5 melanoma) | GI50 (ACHN renal) | TGI (ACHN renal) | GI50 (CCRF-CEM leukemia) | TGI (CCRF-CEM leukemia) | GI50 (UACC-257 melanoma) | TGI (UACC-257 melanoma) | GI50 (T-47D breast) | TGI (T-47D breast) |
| --- | --- | --- | --- | --- | --- | --- | --- | --- | --- | --- | --- | --- | --- | --- | --- | --- |
| O=C1c2c[n+](Cc3ccccc3)ccc2-c2nc3ccccc3c3ccnc1c23 | 0.417 µM | 0.891 µM | 0.594 µM | 1.78 µM | 0.646 µM | 1.77 µM | 0.439 µM | 1.04 µM | 0.196 µM | 33.3 µM | 0.951 µM | 2.81 µM | 0.865 µM | 2.33 µM | 0.648 µM | 1.7 µM |
| O=C1c2ccccc2-n2c1nc1ccc([N+](=O)[O-])cc1c2=O | – | > 100 µM | – | > 100 µM | – | – | – | > 100 µM | – | > 100 µM | – | > 100 µM | – | > 100 µM | – | > 100 µM |
| Cc1ncc2c(n1)CCC1=C2OS(=O)(=O)CC1N(C)C (stereo not given) | – | > 100 µM | – | > 100 µM | – | – | – | > 100 µM | – | > 100 µM | – | > 100 µM | – | > 100 µM | – | > 100 µM |
| COc1cccc2c1C(=O)c1c(O)c3c(c(O)c1C2=O)C[C@@](O)(C(=O)CO)C[C@@H]3OC1CC2C(OCN2CN2COC3C(C)OC(O[C@H]4C[C@](O)(C(=O)CO)Cc5c(O)c6c(c(O)c54)C(=O)c4c(OC)cccc4C6=O)CC32)C(C)O1 (stereo not given in full) | 0.00312 µM | > 1 µM | 0.0032 µM | 0.0159 µM | 0.0179 µM | 0.0591 µM | 0.0143 µM | 0.0492 µM | 0.00194 µM | 0.0345 µM | 0.000537 µM | 0.0221 µM | 0.0015 µM | 0.0208 µM | 0.00185 µM | 0.0174 µM |
| O=C(O)CC(CC(=O)O)n1cccc1 | – | > 100 µM | – | > 100 µM | – | > 100 µM | – | > 100 µM | – | > 100 µM | – | > 100 µM | – | > 100 µM | – | > 100 µM |
| O=C(/C=C/c1cccc(Cl)c1)c1ccccc1 | 11.7 µM | 24.2 µM | 13.9 µM | 27.9 µM | – | – | 13.2 µM | 26.3 µM | 10.5 µM | 23.3 µM | 3.49 µM | 23.2 µM | 15.1 µM | 29 µM | 12.7 µM | 32.2 µM |
| Cc1nc2sc(C(=O)Nc3cccc4c3OCCO4)c(N)c2cc1C(C)O (stereo not given) | 8.31 µM | > 100 µM | 2.97 µM | > 100 µM | – | – | 4.82 µM | > 100 µM | 5.54 µM | > 100 µM | 3.5 µM | > 100 µM | – | – | 5.33 µM | > 100 µM |
| COc1cc(/C=C/C(=O)c2cccc(-n3cc(-c4ccccc4)[nH]c3=O)c2)ccc1O | 2.32 µM | 5.37 µM | 2.33 µM | 7.74 µM | 3.81 µM | 15.1 µM | 2.48 µM | 6.65 µM | 3.46 µM | 16.3 µM | 1.76 µM | 5.33 µM | 4.88 µM | 17.1 µM | 2.72 µM | 8.59 µM |
| C[C@H]1CCC/C=C/[C@@H]2C[C@H](O)C[C@H]2[C@H](O)C(O)C(O)C(=O)O1 (stereo not given in full) | 6.69 µM | > 100 µM | 1.07 µM | – | 3.81 µM | > 23.9 µM | 0.362 µM | – | 3.43 µM | 20.9 µM | 2.73 µM | > 25.9 µM | 1.1 µM | > 100 µM | 5.96 µM | > 100 µM |
| Cc1cc(N)c2cc(NC(=O)/C=C\c3ccccc3Cl)ccc2n1 | 1.45 µM | 2.87 µM | 1.05 µM | 2.49 µM | 1.83 µM | 3.34 µM | 1.46 µM | 2.8 µM | 1.83 µM | 3.26 µM | 0.204 µM | 0.448 µM | 1.76 µM | 3.23 µM | – | – |
| CC(C)C[C@H](NC(=O)[C@@H](N)Cc1cccc2ccccc12)B(O)O | 0.0736 µM | 6.14 µM and 1.15 µM | 0.425 µM | 1.28 µM and 0.148 µM | 0.598 µM | – | 0.176 µM | – | < 0.01 µM | 50 µM and > 100 µM | 0.0724 µM and < 0.01 µM | – | 0.315 µM | 1.12 µM and 0.114 µM | 0.432 µM | – |
| CCOC(=O)c1c(C)n(Cc2ccc(Cl)cc2Cl)c2c1cc(O)c1[nH]c(Cc3ccccc3)nc12 | 3.07 µM | 8.66 µM | 18.6 µM | 34.1 µM | 9.39 µM | 37.2 µM | 1.58 µM | 3.25 µM | 3.49 µM | 13.4 µM | – | – | 19.3 µM | 39 µM | 5.27 µM | 25.9 µM |
| COc1ccc(/C(=N/O)c2cc(F)c(F)c(OC)c2F)cc1O | 1.88 µM | > 100 µM | – | – | 0.421 µM | > 100 µM | 0.599 µM | 17.3 µM | 0.94 µM | > 100 µM | 0.528 µM | 35.2 µM | – | – | 0.53 µM | 72.4 µM |
| C=CC(=O)N1CCN(c2nc(OC[C@@H]3CCCN3C)nc3c(F)c(-c4nc(N)cc(C)c4C(F)(F)F)c(Cl)cc23)[C@@H](C)C1 | 2.65 µM | 7.2 µM | – | – | 2.05 µM | 4.34 µM | 1.74 µM | 3.33 µM | 3.41 µM | 12.6 µM | 3.08 µM | > 100 µM | 1.57 µM | 3 µM | 2.14 µM | 7.17 µM |
| Cc1c(C(=O)Nc2ccc(Oc3ccnc4cc(OCC(C)(C)O)ccc34)c(F)c2)c(=O)n(-c2ccccc2)n1C | – | – | – | – | – | – | – | – | – | – | – | – | – | – | 2.79 µM | > 100 µM |
| O=C1CC[C@@H]2[C@H]3CCC(=O)c4c3c(c3cccc(O)c3c4O)O[C@@]23C(=O)c2cccc(O)c2C(O)=C13 | > 100 µM | > 100 µM | > 100 µM | > 100 µM | 74.4 µM | > 100 µM | > 100 µM | > 100 µM | > 100 µM | > 100 µM | – | – | > 100 µM | > 100 µM | – | – |
| COc1cc2c(cc1OCCCN1CCN(CCCOc3cc4c(cc3OC)C(=O)N3C[C@H](F)C[C@H]3C=N4)CC1)N=C[C@@H]1C[C@@H](F)CN1C2=O | 0.083 µM | 6.16 µM | 0.0223 µM | 0.145 µM | 0.394 µM | 3.29 µM | – | – | 0.102 µM | 0.945 µM | < 0.01 µM | 1.49 µM | 0.127 µM | 0.363 µM | 0.0847 µM | > 26.5 µM |
| CN(C)Cc1nsc(N(C)C)n1 | – | > 100 µM | – | > 100 µM | – | > 100 µM | – | > 100 µM | – | > 100 µM | – | – | – | > 100 µM | – | > 100 µM |
| CC(C)(C)c1ccc(OCCCCCCCN2CCNCC2)cc1 | 1.78 µM | 3.37 µM | 1.88 µM | 3.6 µM | 1.74 µM | 3.47 µM | 1.82 µM | 3.4 µM | – | – | 1.62 µM | 4.1 µM | 1.98 µM | 3.8 µM | 1.76 µM | 3.93 µM |
